What is called inhibition is how much of the control response was suppressed.

Data set [1] concerns Pyricularia grisea. Briefly: microbe, parasite or virus in culture. Type of data set: functional. Particulars: ATCC 64413, 120 h.
Data set [2] deals with Pyricularia grisea. As to the kind of experiment: microbe, parasite or virus in culture. Particulars: ATCC 64413, 120 h. It is filed as functional. This is another data set of the same source.
Data set [3] concerns Pyricularia grisea. As to the kind of experiment: microbe, parasite or virus in culture. Particulars: ATCC 64413, 120 h. Type of data set: functional. This is another data set of the same source.
Data set [4] deals with Pyricularia grisea. Briefly: microbe, parasite or virus in culture. Type of data set: functional. The following applies: ATCC 64413, 120 h. The source holds these as a separate data set.
The subject of data set [5] is Pyricularia grisea. As to the kind of experiment: Antifungal activity against Magnaporthe grisea ATCC 64413 assessed as depigmentation of mycelium at 200 ug/ml. Type of data set: functional, organism-based.
The test system of data set [6] is Oryza sativa. Briefly: Toxicity in Oryza sativa (rice) assessed as seedling growth at 1 to 10 ug/ml after 10 days. It is filed as organism-based. Particulars: in vivo, 240 h.
The subject of data set [7] is Pyricularia grisea. Briefly: Antifungal activity against Magnaporthe grisea ATCC 64413 infected rice plant assessed as growth inhibition at 1 to 10 ug/ml after 5 days. Type of data set: functional, organism-based.
In data set [8] the test system is Oryza sativa. Briefly: Toxicity in Oryza sativa (rice) assessed as seedling growth at >10 ug/ml after 10 days. It is filed as organism-based. Particulars: in vivo, 240 h.
Data set [9] concerns Oryza sativa. Briefly: Toxicity in Oryza sativa (rice) assessed as cell culture growth at 1 to 10 ug/ml after 10 days. Type of data set: organism-based. The following applies: 240 h.

Calls of active or inactive are those of the source. The calls are words filed in the database; no cut-off is given here.

In the case of `Cc1nn(-c2ccccc2)c2nc(C(F)(F)F)[nH]c(=S)c12`, in the data set with Pyricularia grisea [1], at 50 µg/mL the inhibition was 37%. The molecule further gave an inhibition at 100 µg/mL in the data set with Pyricularia grisea [2] of 55%. 200 µg/mL produced 58% inhibition in the data set with Pyricularia grisea [3]. The same molecule showed an inhibition at 10 µg/mL in the data set with Pyricularia grisea [4] of 23%.

Regarding `Cc1nn(-c2ccc(Cl)c(Cl)c2)c2nc(C(F)(F)F)[nH]c(=S)c12`, in the data set with Pyricularia grisea [1], testing at 50 µg/mL gave an inhibition of 91%. Moreover, testing at 100 µg/mL in the data set with Pyricularia grisea [2] gave an inhibition of 100%. Moreover, the inhibition at 200 µg/mL in the data set with Pyricularia grisea [3] amounted to 100%. For the same molecule, the inhibition at 10 µg/mL with Pyricularia grisea [4] is 52%.

`Cc1nn(C(C)(C)C)c2nc(C(F)(F)F)sc(=S)c12` had an inhibition at 100 µg/mL with Pyricularia grisea [2] of 42.7%. For the same molecule, the inhibition at 200 µg/mL in the data set with Pyricularia grisea [3] was 58.3%.

For `Cc1nn(C(C)(C)C)c2nc(-c3ccccc3)sc(=S)c12`, in the data set with Pyricularia grisea [1], the inhibition at 50 µg/mL was 16%. Besides, the inhibition at 100 µg/mL in the data set with Pyricularia grisea [2] came out at 16%. The molecule also gave an inhibition at 200 µg/mL with Pyricularia grisea [3] of 17%. The same molecule returned an inhibition at 10 µg/mL in the data set on Pyricularia grisea [4] of 14%.

As to `Cc1nn(C(C)(C)C)c2nc(-c3ccccc3)sc(=O)c12`, the inhibition at 50 µg/mL in the data set with Pyricularia grisea [1] amounted to 14%. Also, 100 µg/mL produced 16% inhibition with Pyricularia grisea [2]. In addition, the inhibition at 200 µg/mL with Pyricularia grisea [3] came out at 19%. Further, at 10 µg/mL the inhibition with Pyricularia grisea [4] was 14%.

`Cc1n[nH]c2nc(-c3ccccc3)sc(=O)c12` returned an inhibition at 50 µg/mL with Pyricularia grisea [1] of 24%. Also, in the data set on Pyricularia grisea [2], the inhibition at 100 µg/mL turned out to be 28%. The same molecule had an inhibition at 200 µg/mL in the data set on Pyricularia grisea [3] of 30%. Besides, in the data set on Pyricularia grisea [4], the inhibition at 10 µg/mL was 16%.

In the case of `Cc1cc2nc(-c3ccc(Cl)cc3)sc(=O)n2n1`, the inhibition at 50 µg/mL with Pyricularia grisea [1] turned out to be 62%. The molecule also registered an inhibition at 100 µg/mL in the data set on Pyricularia grisea [2] of 66%. The molecule also gave an inhibition at 200 µg/mL in the data set on Pyricularia grisea [3] of 66%. Moreover, 10 µg/mL produced 17% inhibition in the data set on Pyricularia grisea [4].

In the data set on Pyricularia grisea [1], `O=c1sc(-c2ccccc2)nc2cc(-c3ccccc3)nn12` gave an inhibition at 50 µg/mL of 15%. Besides, in the data set on Pyricularia grisea [2], testing at 100 µg/mL gave an inhibition of 15%. The molecule further had an inhibition at 200 µg/mL in the data set on Pyricularia grisea [3] of 15%. Further, at 10 µg/mL the inhibition with Pyricularia grisea [4] was 15%.

With `Cc1cc2nc(C(F)(F)F)sc(=O)n2n1`, testing at 50 µg/mL with Pyricularia grisea [1] gave an inhibition of 97.9%. This molecule returned an inhibition at 100 µg/mL in the data set with Pyricularia grisea [2] of 99.5%. This molecule displayed an inhibition at 200 µg/mL in the data set on Pyricularia grisea [3] of 100%. Besides, the inhibition at 10 µg/mL in the data set on Pyricularia grisea [4] stood at 64.5%.

The molecule `O=c1sc(-c2ccccc2)nc2ccnn12` had an inhibition at 50 µg/mL in the data set with Pyricularia grisea [1] of 70.2%. For the same molecule, in the data set with Pyricularia grisea [2], the inhibition at 100 µg/mL worked out at 73.1%. This molecule had an inhibition at 200 µg/mL in the data set on Pyricularia grisea [3] of 75.1%. In the data set on Pyricularia grisea [4], the inhibition at 10 µg/mL worked out at 67%.

As to `Cc1nn(-c2cccc([N+](=O)[O-])c2)c2nc(C(F)(F)F)sc(=O)c12`, 50 µg/mL produced 39.6% inhibition with Pyricularia grisea [1]. The same molecule came in with an inhibition at 100 µg/mL with Pyricularia grisea [2] of 54.4%. Further, 200 µg/mL produced 81.1% inhibition in the data set on Pyricularia grisea [3]. Besides, the inhibition at 10 µg/mL in the data set on Pyricularia grisea [4] was 21.9%.

`Cc1nn(-c2cccc([N+](=O)[O-])c2)c2nc(C(F)(F)F)[nH]c(=S)c12`: in the data set with Pyricularia grisea [1], 50 µg/mL produced 61% inhibition. The molecule also came in with an inhibition at 100 µg/mL in the data set on Pyricularia grisea [2] of 78%. The inhibition at 200 µg/mL in the data set on Pyricularia grisea [3] is 95.9%. The same molecule came in with an inhibition at 10 µg/mL with Pyricularia grisea [4] of 32%.

In the case of `Cc1n[nH]c2nc(Cc3ccccc3)sc(=O)c12`, in the data set on Pyricularia grisea [1], the inhibition at 50 µg/mL was 57%. Moreover, the inhibition at 100 µg/mL in the data set on Pyricularia grisea [2] was 77%. The molecule also gave an inhibition at 200 µg/mL with Pyricularia grisea [3] of 80%. The same molecule had an inhibition at 10 µg/mL with Pyricularia grisea [4] of 30%.

In the data set on Pyricularia grisea [1], `Cc1cc2nc(C(F)(F)F)sc(=S)n2n1` had an inhibition at 50 µg/mL of 79.6%. This molecule also returned an inhibition at 100 µg/mL with Pyricularia grisea [2] of 79.7%. Also, the inhibition at 200 µg/mL in the data set on Pyricularia grisea [3] was determined as 93.2%. Besides, testing at 10 µg/mL in the data set on Pyricularia grisea [4] gave an inhibition of 48.4%.

For the molecule `Cc1nn(-c2ccccc2)c2nc(C(F)(F)F)sc(=S)c12`, in the data set with Pyricularia grisea [2], the inhibition at 100 µg/mL was found to be 29.6%. The molecule also yielded an inhibition at 200 µg/mL in the data set on Pyricularia grisea [3] of 43.8%.

In turn, `Cc1cc2nc(-c3ccc(Br)cc3)sc(=O)n2n1` returned an inhibition at 50 µg/mL with Pyricularia grisea [1] of 47%. In the data set with Pyricularia grisea [2], this molecule registered an inhibition at 100 µg/mL of 58%. The same molecule registered an inhibition at 200 µg/mL with Pyricularia grisea [3] of 74%. For the same molecule, in the data set with Pyricularia grisea [4], 10 µg/mL produced 47% inhibition.

In the data set with Pyricularia grisea [1], `Cc1nn(-c2ccc(Cl)c(Cl)c2)c2nc(C(F)(F)F)sc(=S)c12` returned an inhibition at 50 µg/mL of 83.1%. In the data set on Pyricularia grisea [2], this molecule gave an inhibition at 100 µg/mL of 90.5%. Also, the inhibition at 200 µg/mL with Pyricularia grisea [3] was 100%. In the data set with Pyricularia grisea [4], this molecule gave an inhibition at 10 µg/mL of 57.7%.

Molecule `Cc1nn(-c2cccc([N+](=O)[O-])c2)c2nc(C(F)(F)F)sc(=S)c12` showed an inhibition at 50 µg/mL in the data set on Pyricularia grisea [1] of 89.1%. In the data set on Pyricularia grisea [2], this molecule displayed an inhibition at 100 µg/mL of 91.7%. In the data set with Pyricularia grisea [3], this molecule gave an inhibition at 200 µg/mL of 100%. In the data set with Pyricularia grisea [4], the inhibition at 10 µg/mL was 71.2%.

As to `Cc1n[nH]c2nc(-c3ccccc3)sc(=S)c12`, at 50 µg/mL the inhibition in the data set on Pyricularia grisea [1] was 15%. In the data set on Pyricularia grisea [2], this molecule had an inhibition at 100 µg/mL of 17%. This molecule also showed an inhibition at 200 µg/mL with Pyricularia grisea [3] of 21%. Also, in the data set with Pyricularia grisea [4], the inhibition at 10 µg/mL worked out at 14%.

Regarding `Cc1nn(C(C)(C)C)c2nc(C(F)(F)F)[nH]c(=S)c12`, the inhibition at 50 µg/mL in the data set on Pyricularia grisea [1] was determined as 31%. Moreover, the inhibition at 100 µg/mL with Pyricularia grisea [2] is 35%. This molecule came in with an inhibition at 200 µg/mL in the data set on Pyricularia grisea [3] of 44%. For the same molecule, the inhibition at 10 µg/mL with Pyricularia grisea [4] is 25%.

In turn, `Cc1n[nH]c2nc(Cc3ccccc3)sc(=S)c12` displayed an inhibition at 50 µg/mL in the data set on Pyricularia grisea [1] of 75%. In addition, the inhibition at 100 µg/mL in the data set on Pyricularia grisea [2] came out at 76%. In addition, the inhibition at 200 µg/mL with Pyricularia grisea [3] is 77%. Further, the result with Pyricularia grisea [5] was Active. The molecule further registered an inhibition at 10 µg/mL in the data set on Pyricularia grisea [4] of 73%.

With `Cc1cc2nc(-c3ccccc3)sc(=O)n2n1`, the Activity result is “Non-toxic” with Oryza sativa [6], “Toxic” in the data set with Oryza sativa [8] and “Non-toxic” with Oryza sativa [9]. Further, in the data set with Pyricularia grisea [1], the inhibition at 50 µg/mL amounted to 100%. Moreover, in the data set on Pyricularia grisea [7], the result was Active. This molecule registered an inhibition at 100 µg/mL in the data set on Pyricularia grisea [2] of 100%. In addition, in the data set with Pyricularia grisea [3], at 200 µg/mL the inhibition was 100%. In the data set on Pyricularia grisea [4], the inhibition at 10 µg/mL amounted to 92.4%.

On to `Cc1cccc2sc3nncn3c12` [TRICYCLAZOLE], for which the inhibition at 50 µg/mL in the data set on Pyricularia grisea [1] is 23.5%. Moreover, in the data set with Pyricularia grisea [2], the inhibition at 100 µg/mL turned out to be 61.5%. Also, the inhibition at 200 µg/mL in the data set on Pyricularia grisea [3] amounted to 94%. In the data set with Pyricularia grisea [4], at 10 µg/mL the inhibition was 0%.
